Measured values: PubChem BioAssay (NCI)
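These data come from cells grown in 96-well plates and exposed to compound for 48 hours at five concentrations. TGI denotes the concentration required for complete inhibition of growth.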

Legend:
Experiment in all cases: NCI tumour cell line growth inhibition, 48 h
HT29 colon = tested on: HT29 colon
MCF7 breast = tested on: MCF7 breast
NCI-H522 lung = tested on: NCI-H522 lung
COLO 205 colon = tested on: COLO 205 colon
TK-10 renal = tested on: TK-10 renal
NCI-H460 lung = tested on: NCI-H460 lung
BT-549 breast = tested on: BT-549 breast
DU-145 prostate = tested on: DU-145 prostate
SNB-75 CNS = tested on: SNB-75 CNS
SK-MEL-5 melanoma = tested on: SK-MEL-5 melanoma
HCT-116 colon = tested on: HCT-116 colon
HCT-15 colon = tested on: HCT-15 colon
SN12C renal = tested on: SN12C renal
MOLT-4 leukemia = tested on: MOLT-4 leukemia
KM12 colon = tested on: KM12 colon
HOP-62 NSCLC = tested on: HOP-62 NSCLC
SK-OV-3 ovarian = tested on: SK-OV-3 ovarian
HCC-2998 colon = tested on: HCC-2998 colon
SR leukemia = tested on: SR leukemia
HS 578T breast = tested on: HS 578T breast
K-562 leukemia = tested on: K-562 leukemia
UACC-257 melanoma = tested on: UACC-257 melanoma
SF-539 CNS = tested on: SF-539 CNS
PC-3 prostate = tested on: PC-3 prostate
NCI/ADR-RES ovarian = tested on: NCI/ADR-RES ovarian
RPMI-8226 leukemia = tested on: RPMI-8226 leukemia
UACC-62 melanoma = tested on: UACC-62 melanoma
EKVX NSCLC = tested on: EKVX NSCLC
SK-MEL-28 melanoma = tested on: SK-MEL-28 melanoma
MDA-MB-435 = tested on: MDA-MB-435
SNB-19 CNS = tested on: SNB-19 CNS
MALME-3M melanoma = tested on: MALME-3M melanoma
SF-268 CNS = tested on: SF-268 CNS
A498 renal = tested on: A498 renal
OVCAR-8 ovarian = tested on: OVCAR-8 ovarian
786-0 renal = tested on: 786-0 renal
OVCAR-5 ovarian = tested on: OVCAR-5 ovarian
NCI-H23 lung = tested on: NCI-H23 lung
U251 CNS = tested on: U251 CNS
OVCAR-4 ovarian = tested on: OVCAR-4 ovarian
UO-31 renal = tested on: UO-31 renal
M14 melanoma = tested on: M14 melanoma
MDA-N = tested on: MDA-N
NCI-H226 lung = tested on: NCI-H226 lung
RXF 393 renal = tested on: RXF 393 renal
MDA-MB-231 breast = tested on: MDA-MB-231 breast
SW-620 colon = tested on: SW-620 colon
IGROV1 ovarian = tested on: IGROV1 ovarian
LOX IMVI melanoma = tested on: LOX IMVI melanoma
T-47D breast = tested on: T-47D breast
OVCAR-3 ovarian = tested on: OVCAR-3 ovarian
CAKI-1 renal = tested on: CAKI-1 renal
HOP-92 NSCLC = tested on: HOP-92 NSCLC
ACHN renal = tested on: ACHN renal

SMILES: O=C1C=C(c2ccccc2)O/C1=C\C(=O)c1ccc(Cl)cc1
- TGI (HT29 colon): 13.1 µM
- TGI (MCF7 breast): 34.9 µM
- TGI (NCI-H522 lung): 44.2 µM
- TGI (COLO 205 colon): 30.8 µM
- TGI (TK-10 renal): 35 µM
- TGI (NCI-H460 lung): > 100 µM
- TGI (BT-549 breast): 25.3 µM
- TGI (DU-145 prostate): > 100 µM
- TGI (SNB-75 CNS): 18.2 µM
- TGI (SK-MEL-5 melanoma): 91.9 µM
- TGI (HCT-116 colon): 31.2 µM
- TGI (HCT-15 colon): 35.1 µM
- TGI (SN12C renal): 11.5 µM
- TGI (MOLT-4 leukemia): > 100 µM
- TGI (KM12 colon): 80.5 µM
- TGI (HOP-62 NSCLC): > 100 µM
- TGI (SK-OV-3 ovarian): > 100 µM
- TGI (HCC-2998 colon): 87.5 µM
- TGI (SR leukemia): > 100 µM
- TGI (HS 578T breast): 61.5 µM
- TGI (K-562 leukemia): 73 µM
- TGI (UACC-257 melanoma): 37.1 µM
- TGI (SF-539 CNS): > 100 µM
- TGI (PC-3 prostate): 30.3 µM
- TGI (NCI/ADR-RES ovarian): 52.4 µM
- TGI (RPMI-8226 leukemia): > 100 µM
- TGI (UACC-62 melanoma): 30.4 µM
- TGI (EKVX NSCLC): > 100 µM
- TGI (SK-MEL-28 melanoma): 38.5 µM
- TGI (MDA-MB-435): 29.8 µM
- TGI (SNB-19 CNS): > 100 µM
- TGI (MALME-3M melanoma): 29.4 µM
- TGI (SF-268 CNS): 52.2 µM
- TGI (A498 renal): > 100 µM
- TGI (OVCAR-8 ovarian): 83.4 µM
- TGI (786-0 renal): 28.8 µM
- TGI (OVCAR-5 ovarian): 88 µM
- TGI (NCI-H23 lung): 65.8 µM
- TGI (U251 CNS): 29.9 µM
- TGI (OVCAR-4 ovarian): 58.2 µM
- TGI (UO-31 renal): 35.8 µM
- TGI (M14 melanoma): 41.5 µM
- TGI (MDA-N): 38.7 µM
- TGI (NCI-H226 lung): 44.5 µM
- TGI (RXF 393 renal): 32.6 µM
- TGI (MDA-MB-231 breast): 32.7 µM
- TGI (SW-620 colon): 10.1 µM
- TGI (IGROV1 ovarian): 35.8 µM
- TGI (LOX IMVI melanoma): 30.1 µM
- TGI (T-47D breast): 74.1 µM
- TGI (OVCAR-3 ovarian): 47.1 µM
- TGI (CAKI-1 renal): 32.5 µM
- TGI (HOP-92 NSCLC): 50 µM
- TGI (ACHN renal): 29.7 µM
